Experiments:
NHP tissues = experiment: Lipid tissue accumulation in NHP after a single dose; assay type: in vivo, cynomolgus monkey
Method: NHP studies: Nonhuman primate studies were conducted using naïve cynomolgus monkeys (cynos), 2-4 years old, weighing 2-6 kg. No treatment randomization or blinding methods were used for any of the animal studies. Sample sizes were determined by the resource equation method. For injection, mRNA-LNPs in phosphate buffered saline (PBS) were administered by 60-minute intravenous infusion using a temporary indwelling catheter inserted in a peripheral vein.
NHP more closely approximates clinical responses for LNP-based systems than rodent (DeRosa, F., Guild, B., Karve, S., Smith, L., Love, K., Dorkin, J R., et. al. Therapeutic efficacy in a hemophilia B model using a biosynthetic mRNA liver depot system. Gene Ther. 2016, 23, 699-707, the contents of which are incorporated herein by reference in their entireties). In order to translate the findings from rodent to the non-human primate (NHP), the lipids were tested in NHP. For this purpose, it was evaluated whether the improved expression observed in mouse and rat with LNPs containing compound 18 could also be achieved in NHP after a single dose. […] A dose of 0.01 mg/kg of hEPO-encoding mRNA was delivered via a 60 minute intravenous infusion. […] A separate study evaluated the lipid tissue accumulation in NHP after a single dose.

hEPO mRNA = experiment: hEPO expression and cytokine induction after intravenous administration to mice; assay type: in vivo; conditions: for hEPO expression, 3 h / Cytokine expression, IL-6 (6 h) / Cytokine expression, IP-10 (6 h) / hEPO expression, 6 h / hEPO expression, 24 h: intravenous 0.5 mpk
Method: FIG. 17 is a graph showing the hEPO mRNA expression in CD1-mice measured 3 h (left block), 6 h (middle block) and 24 h (right block) after intravenous administration of various nanoparticle compositions. Numbers 1-13 refer to compositions containing an mRNA expressing hEPO and the following: 1: Compound 147, 2: Compound 184, 3: Compound 232; 4: Compound 189; 5: Compound 200; 6: Compound 233; 7: Compound 234; 8: Compound 235; 9: Compound 237; 10: Compound 239; 11: Compound 243; 12: MC3; 13: PBS. […]
Sample formulations of nanoparticle compositions including different lipids are generally first evaluated according to Luc expression in vivo. The activity of several such compositions was further evaluated using an mRNA encoding hEPO. Nanoparticle compositions including Compounds 6, 18, 25, 30, 108-112, 60, and 122, or MC3 were prepared according to Example 2.
The expression of hEPO and cytokine induction in mice intravenously administered a nanoparticle composition at a dose of 0.5 mpk were measured at 3, 6, and 24 hours. […] The expression of hEPO in mice intramuscularly administered a nanoparticle composition from Table 1B at a dose of 0.01 mpk were measured at 3, 6, and 24 hours. […] (see
Table 12 compares the nanoparticle compositions including compounds according to Formula (I), (IA), (IB), (II), (IIa), (IIb), (IIc), (IId), (IIe), (IIf), (IIg), or (III) to the compositions including MC3 on the basis of expression and flux levels. […] Thus, these lipids may be useful in nanoparticle composition therapeutics.

[1] = pKa / apparent pKa of nanoparticle compositions; conditions: Table 1B; formulated with hEPO mRNA
mouse tissues = experiment: Lipid clearance from mouse tissues after weekly dosing 0.05 mg/kg mRNA on day 1, 8 and 15; assay type: in vivo
Method: Repeat dosing of mRNA in an MC3-based LNP for a therapeutic indication would be expected to lead to accumulation of MC3 in tissues, based on the measured half-life. Therefore it was investigated whether the favorable single dose pharmacokinetics of compound 18 were maintained with weekly dosing. Clearance of MC3 and compound 18 from multiple mouse tissues was measured after dosing 0.05 mg/kg mRNA on day 1, 8 and 15 (FIG. 30A). Following dosing with MC3 LNPs, lipid was detected in liver, spleen, plasma, kidney, heart and lung; with liver and spleen containing the largest concentrations (FIG. 30A, for full panel of tissues see FIG. 35A). […] Compound 18 was also detected in plasma, lung, and kidney, but not in heart (FIG. 35A).

[2] = system: mRNA encoding anti-HA antibody; experiment: Anti-HA (anti-hemagglutinin) antibody expression after intravenous infusion to cynomolgus monkeys; assay type: in vivo; conditions: iv infusion 60 minutes
Method: FIGS. 11A and 11B show the results of anti-HA (anti-hemagglutinin) antibody expression measured after intravenous administration of various nanoparticle compositions including MC3 and Compound 18 at a 0.1 mpk (FIG. 11A) or 0.3 mpk (FIG. 11B) dose with 60 minutes infusion to naive cynomolgus monkeys.
FIGS. 31A-31C is a series of graphs illustrating the expression profile for lipid nanoparticles of the disclosure in a cynomolgus money study. FIG. 31A illustrates hEPO serum concentrations after delivery of 0.01 mg/kg hEPO mRNA in MC3 or Compound 18. The liquid nanoparticles were administered intravenously, via a 60 min. infusion (n=3). p<0.05 for Compound 18 AUC relative to MC3.
FIG. 36 is a graph illustrating Human IgG expression in a cynomolgus monkey administered with 0.1 mg/kg human IgG mRNA in a composition comprising MC3 or compound 18, intravenously via a 60 min. infusion (n=3).
Results of hEPO expression studies were validated using a standard MC3 formulation and a nanoparticle composition containing Compound 18 including an mRNA encoding an anti-hemagglutinin (anti-HA) antibody. Cynomolgus monkeys were administered a single dose of 0.1 mpk or 0.3 mpk of nanoparticle composition containing Compound 18 (see Table 33; prepared according to Example 2) including an mRNA encoding anti-HA antibody via intravenous infusion for 60 minutes.

CD-1 mouse liver = experiment: Lipid remaining in mouse liver tissue 24 h post dose (LC-MS/MS); assay type: in vivo; conditions: CD-1 mouse liver 24 h after 0.5 mg/kg bolus dose mRNA, n = 5 ± S.D.
Method: LNP administration to animals: mRNA-LNPs diluted in phosphate buffered saline (PBS) were injected intravenously (5 mL/kg) into female CD-1 female mice (18 to 22 g in body weight) and male Sprague-Dawley rats (225-250 g in body weight) via the tail vein using 29 g, 3/10 cc insulin syringes (mice) or 27 g, 1 mL syringes (rats) after gentle warming of the animals using a heat lamp for 3 minutes.
Quantification of Lipid by LC-MS/MS: Liver samples were homogenized following addition of 19 eq. […] Protein was precipitated and analyzed against calibration standards prepared in matching blank. Chromatographic separation and quantification was accomplished with a LC-MS/MS System. Samples were injected and separated via HPLC A triple-quadrupole MS/MS system operated in positive ion mode was used for signal detection.

SMILES	lipid residue in tissues at 12 hours post dose (NHP tissues)	Average hEPO concentration (pg/ml, 6 h) (hEPO mRNA; 6 h) [pg/mL]	Fold increase in hEPO concentration relative to MC3 (hEPO mRNA; Table 12, 6 h)	hEPO expression, 3 h (hEPO mRNA; mice) [pg/mL]	Cytokine expression, IL-6 (6 h) (hEPO mRNA; mice, 6 h) [pg/mL]	Cytokine expression, IP-10 (6 h) (hEPO mRNA; mice, 6 h) [pg/mL]	hEPO expression, 6 h (hEPO mRNA; mice, 6 h) [pg/mL]	hEPO expression, 24 h (hEPO mRNA; mice) [pg/mL]	Apparent pKa [1]	lipid levels in tissues on weekly dosing (mouse tissues)	AUC (anti-HA antibody expression) ([2]; Dose 0.1 mpk) [µg·h/mL]	AUC (anti-HA antibody expression) ([2]; Dose 0.3 mpk) [µg·h/mL]	% dose remaining Mouse liver tissue, 24 h (CD-1 mouse liver)	hEPO concentrations compared with MC3 formulations (hEPO mRNA; mice, intravenous, 0.5 mpk, 3, 6 and 24 hours)
CCCCCC=CCC=CCCCCCCCCC(CCCCCCCCC=CCC=CCCCCC)OC(=O)CCCN(C)C (stereo not drawn) [MC3, heptatriaconta-6,9,28,31-tetraen-19-yl 4-(dimethylamino)butanoate, reference compound]	found in multiple tissues	1.83e+06	1	1.57e+06	19.85	117.94	1.83e+06	810000	6.35	Accumulation of MC3 was observed after each dose	77.05	235.7	71 ± 27%	–
CCCCCCCCCOC(=O)CCCCCCCN(CCO)CCCCCCCC(=O)OC(CCCCCCCC)CCCCCCCC [Compound 18, Heptadecan-9-yl 8-((2-hydroxyethyl)(8-(nonyloxy)-8-oxooctyl)amino)octanoate]	significantly lower levels	–	–	3e+06	10.16	299.93	3.38e+06	1.8e+06	–	significantly lower levels than MC3	354.3	1055	no lipid detected at 24 h	higher hEPO concentrations than MC3 formulations at each time point
